Read-outs that look alike come from different tables or passages of the source.
Tests used:
KRAS WT = KRAS WT (Homo sapiens, UniProt P01116+P62937); assay: Disruption of BRAF RBD interaction with Ras (FRET / MOA assay, with Cyclophilin A); type: biochemical
How it was run: (§1)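 Cyclophilin A-dependent ternary complex assay. K-Ras loaded with nucleotide; BRAF RBD as effector. Cpd top 30 μM final, 3 h at 25 °C. Readout: TR-FRET ratio, IC50.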

KRAS G13D = KRAS G13D (Homo sapiens, UniProt P01116+P62937, G13D); assay: as above; type: biochemical
How it was run: as §1

KRAS G12V = KRAS G12V (Homo sapiens, UniProt P01116+P62937, G12V); assay: as above; type: biochemical
How it was run: as §1

KRAS G12S = KRAS G12S (Homo sapiens, UniProt P01116+P62937, G12S); assay: as above; type: biochemical
How it was run: as §1

NRAS G12C = NRAS G12C (Homo sapiens, UniProt P01111+P62937, G12C); assay: as above; type: biochemical
KRAS G12C = KRAS G12C (Homo sapiens, UniProt P01116+P62937, G12C); assay: as above; type: biochemical
How it was run: as §1

KRAS G13C = KRAS G13C (Homo sapiens, UniProt P01116+P62937, G13C); assay: as above; type: biochemical
How it was run: as §1

KRAS G12D = KRAS G12D (Homo sapiens, UniProt P01116+P62937, G12D); assay: as above; type: biochemical
How it was run: as §1

NCI-H358 (K-Ras G12C) = assay: CellTiter-Glo cell viability assay, 5-day treatment; type: cell-based; conditions: Homo sapiens, NCI-H358, 120 h, 5-day treatment; read-out: H358 Cell Viability assay data (K-Ras G12C, IC50)
How it was run: (§2)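 Five-day compound treatment of plated cells; luminescent read after ~30 min at RT. Percent-of-DMSO data fit to a four-parameter logistic model.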

Capan-1 (K-Ras G12V) = assay: as above; type: cell-based; conditions: Homo sapiens, CAPAN-1, 120 h, 5-day treatment; read-out: Capan-1 Cell Viability assay data (K-Ras G12V, IC50)
How it was run: as §2

NRAS Q61R = NRAS Q61R (Homo sapiens, UniProt P01111+P62937, Q61R); assay: Disruption of BRAF RBD interaction with Ras (FRET / MOA assay, with Cyclophilin A); type: biochemical
How it was run: (§3)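 IC50 reflects compound-driven Ras:Cyclophilin A ternary complex displacing BRAF RBD, read as lowered TR-FRET ratio relative to DMSO after Eu anti-His (10 nM) and APC anti-GST (50 nM) detection for 1.5 h. Prior incubation 3 h, 25° C, with 12.5 nM GMPPNP-loaded Ras, 50 nM BRAF RBD, 25 μM Cyclophilin A; top compound 30 μM.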

NRAS Q61K = NRAS Q61K (Homo sapiens, UniProt P01111+P62937, Q61K); assay: as above; type: biochemical
How it was run: as §3

KRAS Q61H = KRAS Q61H (Homo sapiens, UniProt P01116+P62937, Q61H); assay: as above; type: biochemical
How it was run: as §3

NRAS WT = NRAS WT (Homo sapiens, UniProt P01111+P62937); assay: as above; type: biochemical
How it was run: as §3

[1] = KRAS WT, read-out: KRAS WT FRET data IC50
[2] = KRAS G13D, read-out: KRAS G13D FRET data IC50
[3] = KRAS G12V, read-out: KRAS G12V FRET data IC50
[4] = read-out: KRAS G12S FRET data, IC50
[5] = NRAS G12C, read-out: NRAS G12C FRET data IC50
[6] = read-out: KRAS G12C FRET data, IC50
[7] = read-out: KRAS G13C FRET data, IC50
[8] = read-out: KRAS G12D FRET data, IC50
[9] = NRAS Q61R, read-out: NRAS Q61R FRET data IC50
[10] = NRAS Q61K, read-out: NRAS Q61K FRET data IC50
[11] = KRAS Q61H, read-out: KRAS Q61H FRET data IC50
[12] = NRAS WT, read-out: NRAS WT FRET data IC50

KRAS WT, sequence (P01116 1-169 isoform P01116-2 limits assumed): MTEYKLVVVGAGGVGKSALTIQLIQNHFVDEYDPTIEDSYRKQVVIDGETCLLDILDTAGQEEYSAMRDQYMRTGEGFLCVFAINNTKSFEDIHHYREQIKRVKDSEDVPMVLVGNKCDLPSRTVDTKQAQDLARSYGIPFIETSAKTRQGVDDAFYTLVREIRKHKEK
KRAS WT, sequence (P62937 whole entry): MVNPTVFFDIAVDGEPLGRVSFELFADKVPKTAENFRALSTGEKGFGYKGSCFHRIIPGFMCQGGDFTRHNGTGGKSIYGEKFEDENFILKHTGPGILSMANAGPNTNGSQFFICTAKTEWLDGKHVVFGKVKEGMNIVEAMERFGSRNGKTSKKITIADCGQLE
KRAS G12S, sequence (P01116 1-169 isoform P01116-2 G12S limits assumed): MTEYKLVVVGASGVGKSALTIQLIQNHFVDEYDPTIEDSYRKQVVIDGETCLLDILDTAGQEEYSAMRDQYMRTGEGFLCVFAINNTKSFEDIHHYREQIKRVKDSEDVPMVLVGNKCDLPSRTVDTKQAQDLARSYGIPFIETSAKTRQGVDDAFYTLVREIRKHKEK
KRAS G12S, sequence (P62937 whole entry): as the sequence (P62937 whole entry) above
KRAS G12C, sequence (P01116 1-169 isoform P01116-2 G12C): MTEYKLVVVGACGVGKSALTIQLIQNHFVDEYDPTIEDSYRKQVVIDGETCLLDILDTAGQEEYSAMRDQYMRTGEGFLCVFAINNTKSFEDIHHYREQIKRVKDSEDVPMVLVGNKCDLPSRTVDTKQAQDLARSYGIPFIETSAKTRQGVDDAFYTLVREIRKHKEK
KRAS G12C, sequence (P62937 whole entry): as the sequence (P62937 whole entry) above
KRAS G13C, sequence (P01116 1-169 isoform P01116-2 G13C): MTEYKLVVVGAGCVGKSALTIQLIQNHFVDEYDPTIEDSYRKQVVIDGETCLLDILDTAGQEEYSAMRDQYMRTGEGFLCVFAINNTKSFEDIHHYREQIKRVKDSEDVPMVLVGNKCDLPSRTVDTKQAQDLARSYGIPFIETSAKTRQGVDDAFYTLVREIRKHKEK
KRAS G13C, sequence (P62937 whole entry): as the sequence (P62937 whole entry) above
KRAS G12D, sequence (P01116 1-169 isoform P01116-2 G12D limits assumed): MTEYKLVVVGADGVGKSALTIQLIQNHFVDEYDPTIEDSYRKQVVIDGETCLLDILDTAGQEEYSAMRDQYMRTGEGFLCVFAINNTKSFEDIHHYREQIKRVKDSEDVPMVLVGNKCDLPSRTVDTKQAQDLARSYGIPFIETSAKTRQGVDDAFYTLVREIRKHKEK
KRAS G12D, sequence (P62937 whole entry): as the sequence (P62937 whole entry) above
KRAS Q61H, sequence (P01116 1-169 isoform P01116-2 Q61H limits assumed): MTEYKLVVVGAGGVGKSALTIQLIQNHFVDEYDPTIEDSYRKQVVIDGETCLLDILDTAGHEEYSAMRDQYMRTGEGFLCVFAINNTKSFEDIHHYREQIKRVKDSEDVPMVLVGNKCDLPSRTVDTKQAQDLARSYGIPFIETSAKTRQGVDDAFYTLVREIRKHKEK
KRAS Q61H, sequence (P62937 whole entry): as the sequence (P62937 whole entry) above
KRAS G12V, sequence (P01116 1-169 isoform P01116-2 G12V limits assumed): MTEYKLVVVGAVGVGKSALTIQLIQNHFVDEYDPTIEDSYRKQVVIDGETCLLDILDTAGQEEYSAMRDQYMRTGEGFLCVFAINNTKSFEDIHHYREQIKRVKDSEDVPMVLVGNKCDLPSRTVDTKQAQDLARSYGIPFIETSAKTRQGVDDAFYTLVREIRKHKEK
KRAS G12V, sequence (P62937 whole entry): as the sequence (P62937 whole entry) above
KRAS G13D, sequence (P01116 1-169 isoform P01116-2 G13D limits assumed): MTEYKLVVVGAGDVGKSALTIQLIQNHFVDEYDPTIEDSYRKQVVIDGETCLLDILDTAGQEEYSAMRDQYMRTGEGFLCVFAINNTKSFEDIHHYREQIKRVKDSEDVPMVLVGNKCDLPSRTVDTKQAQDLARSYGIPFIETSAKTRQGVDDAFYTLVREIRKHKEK
KRAS G13D, sequence (P62937 whole entry): as the sequence (P62937 whole entry) above
NRAS Q61K, sequence (P01111 whole entry Q61K): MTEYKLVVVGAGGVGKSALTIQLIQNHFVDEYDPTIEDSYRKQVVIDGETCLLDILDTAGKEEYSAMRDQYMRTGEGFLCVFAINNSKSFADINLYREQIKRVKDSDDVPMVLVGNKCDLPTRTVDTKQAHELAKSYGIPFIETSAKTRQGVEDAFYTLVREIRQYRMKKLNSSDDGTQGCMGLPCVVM
NRAS Q61K, sequence (P62937 whole entry): as the sequence (P62937 whole entry) above
NRAS G12C, sequence (P01111 whole entry G12C): as the sequence (P01111 whole entry Q61K) above, with G12C, K61Q counted along it
NRAS G12C, sequence (P62937 whole entry): as the sequence (P62937 whole entry) above
NRAS Q61R, sequence (P01111 whole entry Q61R): as the sequence (P01111 whole entry Q61K) above, with K61R counted along it
NRAS Q61R, sequence (P62937 whole entry): as the sequence (P62937 whole entry) above
NRAS WT, sequence (P01111 whole entry): as the sequence (P01111 whole entry Q61K) above, with K61Q counted along it
NRAS WT, sequence (P62937 whole entry): as the sequence (P62937 whole entry) above

Row | SMILES | IC50 (KRAS WT; [1]) [µM] | IC50 (KRAS G13D; [2]) [µM] | IC50 (KRAS G12V; [3]) [µM] | IC50 (KRAS G12S; [4]) [µM] | IC50 (NRAS G12C; [5]) [µM] | IC50 (KRAS G12C; [6]) [µM] | IC50 (KRAS G13C; [7]) [µM] | IC50 (KRAS G12D; [8]) [µM] | IC50 (NCI-H358 (K-Ras G12C)) [µM] | IC50 (Capan-1 (K-Ras G12V)) [µM] | IC50 (NRAS Q61R; [9]) [µM] | IC50 (NRAS Q61K; [10]) [µM] | IC50 (KRAS Q61H; [11]) [µM] | IC50 (NRAS WT; [12]) [µM] | also measured
1 | CCn1c(-c2cccnc2[C@H](C)OC)c2c3cc(ccc31)-c1csc(n1)C[C@H](NC(=O)[C@H](C(C)C)N(C)C(=O)N1CC([C@H](C)OC)C1)C(=O)N1CCC[C@H](N1)C(=O)OCC(C)(C)C2 (atropisomer, axis not shown) [Example A279] | 0.1 to 1 | 0.1 to 1 | 0.01 to 0.1 | 0.1 to 1 | 0.01 to 0.1 | 0.01 to 0.1 | 0.1 to 1 | 0.1 to 1 | 0.01 to 0.1 | 0.01 to 0.1 | 0.01 to 0.1 | 0.01 to 0.1 | 0.01 to 0.1 | 0.01 to 0.1 | 
2 | CCn1c(-c2cc(C3CCN(C)CC3)cnc2[C@H](C)OC)c2c3cc(ccc31)-c1csc(n1)C[C@H](NC(=O)[C@H](C(C)C)N(C)C(=O)N(C)C)C(=O)N1CCC[C@H](N1)C(=O)OCC(C)(C)C2 (atropisomer, axis not shown) [Example A484] | 0.1 to 1 | 0.1 to 1 | 0.1 to 1 | 0.1 to 1 | 0.01 to 0.1 | 0.01 to 0.1 | 0.1 to 1 | 0.1 to 1 | < 0.01 | < 0.01 | 0.1 to 1 | 0.01 to 0.1 | 0.01 to 0.1 | 0.01 to 0.1 | 
3 | CCn1c(-c2cccnc2[C@H](C)OC)c2c3cc(ccc31)-c1csc(n1)C[C@H](NC(=O)[C@H](C(C)C)N(C)C(=O)N1CCCC[C@@H](N(C)C)C1)C(=O)N1CCC[C@H](N1)C(=O)OCC(C)(C)C2 [Example A492] | 0.1 to 1 | 0.1 to 1 | 0.1 to 1 | 0.1 to 1 | 0.1 to 1 | 0.1 to 1 | 0.1 to 1 | 0.1 to 1 | 0.01 to 0.1 | 0.1 to 1 | 0.1 to 1 | 0.1 to 1 | 0.01 to 0.1 | 0.1 to 1 | 
4 | CCn1c(-c2cc(N3CCN(C)CC3)cnc2[C@H](C)OC)c2c3cc(ccc31)-c1csc(n1)C[C@H](NC(=O)[C@H](C1CCCC1)N(C)C(=O)N(C)C)C(=O)N1CCC[C@H](N1)C(=O)OCC(C)(C)C2 (atropisomer, axis not shown) [Example A526] | 0.01 to 0.1 | 0.1 to 1 | 0.01 to 0.1 | 0.01 to 0.1 | 0.01 to 0.1 | 0.01 to 0.1 | 0.01 to 0.1 | 0.1 to 1 | < 0.01 | < 0.01 | 0.01 to 0.1 | 0.01 to 0.1 | 0.01 to 0.1 | 0.01 to 0.1 | 
5 | CCn1c(-c2cccnc2[C@H](C)OC)c2c3cc(ccc31)-c1cc(O)cc(c1)C[C@H](NC(=O)[C@H](C(C)C)N(C)C(=O)C1(C#N)CC1)C(=O)N1CCC[C@H](N1)C(=O)OCC(C)(C)C2 (racemic) [Example A159] | 0.01 to 0.1 | 0.01 to 0.1 | 0.01 to 0.1 | 0.01 to 0.1 | 0.01 to 0.1 | 0.01 to 0.1 | 0.01 to 0.1 | 0.01 to 0.1 | < 0.01 | 0.01 to 0.1 | 0.01 to 0.1 | 0.01 to 0.1 | < 0.01 | 0.01 to 0.1 | 
6 | CCn1c(-c2cccnc2[C@H](C)OC)c2c3cc(ccc31)-c1csc(n1)C[C@H](NC(=O)[C@H](C(C)C)N(C)C(=O)N1CCN(C(=O)[C@H]3CCCN3C)CC1)C(=O)N1CCC[C@H](N1)C(=O)OCC(C)(C)C2 (atropisomer, axis not shown) [Example A595] | 0.1 to 1 | 0.1 to 1 | 0.1 to 1 | 0.1 to 1 | 0.01 to 0.1 | 0.01 to 0.1 | 0.1 to 1 | 0.1 to 1 | 0.01 to 0.1 | 0.1 to 1 | 0.1 to 1 | 0.01 to 0.1 | 0.01 to 0.1 | 0.1 to 1 | 
7 | CCn1c(-c2cccnc2[C@H](C)OC)c2c3cc(ccc31)-c1csc(n1)C[C@H](NC(=O)[C@H](C(C)C)N(C)C(=O)N1CC3(CC(N4CCOCC4)C3)C1)C(=O)N1CCC[C@H](N1)C(=O)OCC(C)(C)C2 (atropisomer, axis not shown) [Example A486] | 0.1 to 1 | 0.1 to 1 | 0.1 to 1 | 0.1 to 1 | 0.1 to 1 | 0.1 to 1 | 0.1 to 1 | 1 to 10 | 0.01 to 0.1 | 0.01 to 0.1 | 0.1 to 1 | 0.01 to 0.1 | 0.1 to 1 | 0.1 to 1 | 
8 | CCn1c(-c2cccnc2[C@H](C)OC)c2c3cc(ccc31)-c1csc(n1)C[C@H](NC(=O)[C@H](C(C)C)N(C)C(=O)OC)C(=O)N1CCC[C@H](N1)C(=O)OCC(C)(C)C2 [Example A138] |  |  |  |  |  |  |  |  | 0.01 to 0.1 | 0.01 to 0.1 |  |  |  |  | IC50 (KRAS WT; KRAS WT FRET data IC50, KRAS WT): 0.1 to 1 µM; IC50 (KRAS G13D; KRAS G13D FRET data IC50, KRAS G13D): 1 to 10 µM; IC50 (KRAS G12V; KRAS G12V FRET data IC50, KRAS G12V): 0.1 to 1 µM; IC50 (KRAS G12S; KRAS G12S FRET data, IC50): 1 to 10 µM; IC50 (NRAS G12C; NRAS G12C FRET data IC50, NRAS G12C): 0.1 to 1 µM; IC50 (KRAS G12C; KRAS G12C FRET data, IC50): 0.1 to 1 µM; IC50 (KRAS G13C; KRAS G13C FRET data, IC50): 0.1 to 1 µM; IC50 (KRAS G12D; KRAS G12D FRET data, IC50): 1 to 10 µM; IC50 (NRAS Q61R; NRAS Q61R FRET data IC50, NRAS Q61R): 0.1 to 1 µM; IC50 (NRAS Q61K; NRAS Q61K FRET data IC50, NRAS Q61K): 0.1 to 1 µM; IC50 (KRAS Q61H; KRAS Q61H FRET data IC50, KRAS Q61H): 0.1 to 1 µM; IC50 (NRAS WT; NRAS WT FRET data IC50, NRAS WT): 0.1 to 1 µM

From patent US20230233569A1 (Revolution Medicines, Inc., priority 2020, published 2023)
